In PMC9490176 (Frontiers in Pharmacology, 2022):
Where two headings read alike, the source gives them in different places. Values belong to the compound of their own block, whether it stands above or below them.

Tests used:
[1] = tested on: pyrotinib metabolism in rat liver microsomes (RLMs); assay: In vitro drug-drug interaction study: azole inhibition of pyrotinib metabolism (M1 formation) in RLMs; assay type: in vitro ADME, Sprague-Dawley (SD) rat; conditions: for IC50: 0.3 mg/ml RLMs, 1 mM NADPH, 37°C, 30 min, n = 3; for Ki / αKi: RLMs, pyrotinib 1, 2, 4, 8 µM, Lineweaver-Burk analysis
Experimental: (§1) The rats were anesthetized with 10% chloral hydrate after 12 h of starvation. […] The rat liver tissue was then accurately removed and transferred to Petri dishes at 0–4°C. The tissues were homogenized in 0.15 mol/L KCl-PBS buffer and stored at 4°C. The homogenate (CR30NX, Eppendorf, Germany) was centrifuged at 9000 rpm at 4°C for 30 min. The supernatant was transferred to another tube and was centrifuged at 105000 rpm at 4°C for 60 min. The precipitate containing liver microsomes was removed and suspended in 0.15 mol/L KCl-PBS buffer (containing 0.25 mol/L sucrose) and stored at −80°C for later use. The liver microsomal concentration was 8.838 mg/ml after the determination with the BCA protein quantification kit (Thermo Scientific, Waltham, MA, United States).
Waters Acquity UPLC I-Class (Waters, USA) was used to separate pyrotinib and midazolam. A binary solvent manager (BSM) and sample manager with a flow-through needle (SM-FTN) were used in the UPLC system. The metabolites’ effective separation was achieved using Acquity UPLC HSS T3 (100 × 2.1 mm, 1.8 μm particle size) (Waters Corporation, Milford, MA, USA) with a mobile phase of acetonitrile (solvent A) and 0.1% formic acid water containing 20 mmol ammonium acetate (solvent B). The gradient program was set as following: 0–0.3 min 10–30% A; 0.3–1 min 30–95% A; 1–2 min 95% A; 2–2.3 min 95–10% A. The mobile phase’s flow rate was 0.4 mL/min, the column temperature was set as 40 °C, and the injection volume was 2 μL. The XEVO TQD triple quadrupole mass spectrometer was equipped with an electrospray ionization (ESI) source, and the multiple reaction monitoring (MRM) mode was selected for quantification. The data were collected using the Mass lynx 4.1 software (Waters Corp.). Mass spectral data were obtained in positive electrospray mode (ESI+) in MRM mode. Nitrogen was used as desolvation (1000 L/h) and cone gases (50 L/h). The ion monitoring voltage conditions were as follows: capillary voltage, 2.5 kV; source temperature, 150°C; desolvation temperature, 500°C. Various reaction monitoring methods were used for quantitative analysis.
200 µl of the incubation mixture was set up as following: 0.3 mg/ml RLMs, 100 mM potassium phosphate buffer (pH 7.4), 1 mM NADPH, and three azole antifungal drugs. […] For fluconazole and itraconazole, the concentrations of them were all adjusted to 0.01, 0.1, 1, 5, 10, 50, and 100 µM. […] The ingredients were combined and pre-warmed for 5 min at 37°C. The reaction was initiated with NADPH and incubated at 37°C for 30 min. Then, 200 µl of acetonitrile-midazolam solution (containing midazolam 200 ng/ml) was added and the mixture was vortexed for 2 min to stop the reaction. After been centrifuged at 13000 rpm for 5 min, 2 µl aliquot of the supernatant was then used for the UPLC-MS/MS analysis.
(§2) GraphPad Prism 7.0 software (GraphPad Software Inc.) was used to calculate the enzyme kinetic parameters of substrates which include Vmax, Km, IC50, Ki, and αKi values. The enzyme inhibition mode was obtained using the Linear Lineweaver-Burk plots. The PK characteristics, maximal plasma concentration (Cmax), time to peak plasma concentration (Tmax), apparent volume of distribution (Vz/F), area under the plasma concentration-time curve (AUC), elimination half-life (t1/2), plasma clearance (Cl/F), and mean residence time (MRT), were calculated using DAS (Drug and Statistics) software (Version 3.2.8, The People’s Hospital of Lishui, China). The one-way ANOVA and a Dunnet’s multiple range test were used for the statistical comparisons within groups with SPSS software (Version 25.0; SPSS Inc.). Statistical significance was set at p < 0.05.

[2] = design: method as in Ma et al., 2017; conditions: following the initial dose of 80–400 mg pyrotinib; ref Ma et al., 2017; cited from earlier work
[3] = In vivo pharmacokinetics of pyrotinib in rats with or without azole pretreatment; design: species or system Sprague-Dawley rats; conditions: rat; for AUC(0-inf) / AUC(0-t) / CL/F / Cmax / Vd/F: male, Sprague-Dawley, plasma, po, 8 mg/kg; for AUC(0-inf) / AUC(0-t) / CL/F / Cmax / Vd/F / MRT(0-t) / MRT(0-∞) / Tmax / t1/2: 8 mg/kg pyrotinib oral; for AUC(0-inf) / AUC(0-t) / CL/F / Cmax / MRT(0-t) / MRT(0-∞) / Tmax / t1/2: n = 6; for Vd/F: n = 6, read-out: Vz/F
Experimental: Male Sprague-Dawley rats (180–220 g) were supplied by the Experimental Animal Center of Wenzhou Medical University. The animals were placed in a controlled environment of 20–26°C and 55 ± 15% relative humidity under a 12 h light-dark cycle. Except for the 12-h fasting period before the PK study, all rats were fed a standard rodent diet and freely consumed tap water. All experimental procedures and protocols were reviewed and approved by the Animal Care and Use Committee of the Wenzhou Medical University (No. wydw 2019-650), following the Guidelines for The Care and Use of Laboratory Animals. […] After the last administration of the three azoles or 0.5% CMC-Na (control group), a single dose of 8 mg/kg pyrotinib was administered orally to all rats in each group. Each group consisted of 6 rats. The azole antifungal medication was dissolved in 0.5% carboxymethylcellulose sodium solution (CMC-Na). […] The plasma was obtained by centrifuging the blood samples at 4000 rpm for 10 min at 4°C and stored at −80°C until analysis. The frozen plasma samples were thawed at room temperature and uniformly mixed; 50 μL of plasma sample was removed and mixed with 150 μL acetonitrile-midazolam solution (containing midazolam 200 ng/ml) to precipitate the proteins, followed by vortexing for 30 s and centrifuging at 13,000 rpm for 5 min. Then 150 μL of the supernatant was collected and placed into UPLC vials with 2 μL of sample was subjected to UPLC-MS/MS analysis. GraphPad Prism 7.0 software (GraphPad Software Inc.) was used to calculate the enzyme kinetic parameters of substrates which include Vmax, Km, IC50, Ki, and αKi values. The enzyme inhibition mode was obtained using the Linear Lineweaver-Burk plots. The PK characteristics, maximal plasma concentration (Cmax), time to peak plasma concentration (Tmax), apparent volume of distribution (Vz/F), area under the plasma concentration-time curve (AUC), elimination half-life (t1/2), plasma clearance (Cl/F), and mean residence time (MRT), were calculated using DAS (Drug and Statistics) software (Version 3.2.8, The People’s Hospital of Lishui, China). The one-way ANOVA and a Dunnet’s multiple range test were used for the statistical comparisons within groups with SPSS software (Version 25.0; SPSS Inc.). Statistical significance was set at p < 0.05.

[4] = tested on: rat liver microsomes (RLMs); assay: Michaelis-Menten kinetics of pyrotinib metabolism in RLMs; assay type: in vitro ADME, Sprague-Dawley (SD) rat; conditions: pyrotinib 0.5–25 μM in RLMs
Experimental: as §1, with “States). […]” for “States).”
as §2, with “The enzyme inhibition mode was obtained using the Linear Lineweaver-Burk plots.” left out, “The one-way ANOVA and a Dunnet’s multiple range test were used for the statistical comparisons within groups with SPSS software (Version 25.0; SPSS Inc.). Statistical significance was set at p < 0.05.” left out

[5] = Stability evaluation in rat plasma (UPLC-MS/MS method validation); assay type: in vitro ADME; conditions: n = 6
Text: The test method was extensively verified regarding precision, accuracy, and stability, according to the EMA (European Medicines Agency) 2011 and FDA (Food and Drug Administration) 2018 criteria. In six replicates, quality control (QC) samples were generated at low, medium, and high concentrations and were utilized to validate the procedure. This method was designed to conform to EMA and FDA regulatory requirements for bioanalytical methods.

[6] = design: method as in Shi et al., 2011; conditions: with ketoconazole compared with ruxolitinib alone; ref Shi et al., 2011; cited from earlier work
[7] = after 40 mg/kg fluconazole for 7 days
[8] = after 40 mg/kg itraconazole for 7 days
[9] = after 40 mg/kg ketoconazole for 7 days
[10] = 4°C, 24 h, high concentration (pyrotinib 4500, pyrotinib M1 0.75 μM)
[11] = 4°C, 24 h, low concentration (pyrotinib 15, pyrotinib M1 0.015 μM)
[12] = 4°C, 24 h, medium concentration (pyrotinib 150, pyrotinib M1 0.15 μM)
[13] = Room temperature, 6 h, high concentration (pyrotinib 4500, pyrotinib M1 0.75 μM)
[14] = Room temperature, 6 h, low concentration (pyrotinib 15, pyrotinib M1 0.015 μM)
[15] = Room temperature, 6 h, medium concentration (pyrotinib 150, pyrotinib M1 0.15 μM)
[16] = −80°C, 7 days, high concentration (pyrotinib 4500, pyrotinib M1 0.75 μM)
[17] = −80°C, 7 days, low concentration (pyrotinib 15, pyrotinib M1 0.015 μM)
[18] = −80°C, 7 days, medium concentration (pyrotinib 150, pyrotinib M1 0.15 μM)

Compound: CC(=O)N1CCN(c2ccc(OCC3COC(Cn4ccnc4)(c4ccc(Cl)cc4Cl)O3)cc2)CC1 (stereo not shown) [ketoconazole, Ketoconazole]
IC50 [1]: 60 nM
Ki [1]: 132 nM
αKi [1]: 0.077 µM

Compound: CCOc1cc2ncc(C#N)c(Nc3ccc(OCc4ccccn4)c(Cl)c3)c2cc1NC(=O)/C=C/[C@H]1CCCN1C [pyrotinib, Pyrotinib]
mean terminal half-life (t1/2) [2]: 11.4 to 15.9 h
time required to attain maximum plasma concentration (Tmax) [2]: 3 to 5 h
AUC(0-inf) [3, 7]: 29200 ng·h/mL
AUC(0-t) [3, 7]: 29100 ng·h/mL
CL/F [3, 7]: 4.83 mL/min/kg
Cmax [3, 7]: 4290 ng/mL
Vd/F [3, 7]: 1.09 ± 0.21 L/kg
AUC(0-inf) [3, 8]: 18000 ng·h/mL
AUC(0-t) [3, 8]: 18000 ng·h/mL
CL/F [3, 8]: 7.5 mL/min/kg
Cmax [3, 8]: 3000 ng/mL
Vd/F [3, 8]: 1 ± 0.58 L/kg
AUC(0-inf) [3, 9]: 36500 ng·h/mL
AUC(0-t) [3, 9]: 36300 ng·h/mL
CL/F [3, 9]: 3.83 mL/min/kg
Cmax [3, 9]: 4680 ng/mL
Vd/F [3, 9]: 0.89 ± 0.24 L/kg
AUC(0-inf) ([3]; control group (0.5% CMC-Na)): 17800 ng·h/mL
AUC(0-t) ([3]; control group (0.5% CMC-Na)): 17800 ng·h/mL
CL/F ([3]; control group (0.5% CMC-Na)): 7.67 mL/min/kg
Cmax ([3]; control group (0.5% CMC-Na)): 3060 ng/mL
Vd/F ([3]; control group (0.5% CMC-Na)): 0.81 ± 0.25 L/kg
MRT(0-t) [3, 7]: 5.28 ± 0.24 H
MRT(0-∞) [3, 7]: 5.37 ± 0.27 H
Tmax [3, 7]: 3.83 ± 0.41 H
t1/2 [3, 7]: 2.66 ± 0.15 H
MRT(0-t) [3, 8]: 4.55 ± 0.36 H
MRT(0-∞) [3, 8]: 4.56 ± 0.37 H
Tmax [3, 8]: 4.00 ± 1.10 H
t1/2 [3, 8]: 1.47 ± 0.63 H
MRT(0-t) [3, 9]: 5.38 ± 0.38 H
MRT(0-∞) [3, 9]: 5.47 ± 0.38 H
Tmax [3, 9]: 4.00 ± 1.10 H
t1/2 [3, 9]: 2.66 ± 0.20 H
MRT(0-t) ([3]; control group (0.5% CMC-Na)): 4.32 ± 0.40 H
MRT(0-∞) ([3]; control group (0.5% CMC-Na)): 4.32 ± 0.42 H
Tmax ([3]; control group (0.5% CMC-Na)): 3.50 ± 1.23 H
t1/2 ([3]; control group (0.5% CMC-Na)): 1.26 ± 0.54 H
decrease of Cl/F compared to the control group ([3]; coadministrated with ketoconazole): approximately 50%
decrease of Cl/F compared with control group ([3]; fluconazole group): 0.37 fold
increase of AUC(0-t) compared with control group ([3]; fluconazole group): 0.63 fold
increase of Cmax compared with control group ([3]; fluconazole group): 0.40 fold
decrease of Cl/F compared with control group ([3]; ketoconazole group): 0.50 fold
increase of AUC(0-t) compared with control group ([3]; ketoconazole group): 1.04 fold
increase of Cmax compared with control group ([3]; ketoconazole group): 0.53 fold
Km [4]: 4.09 µM
Vmax [4]: 58.33 pmol/min/mg protein
Stability in rat plasma, RE [5, 10]: 101.04%
Stability in rat plasma, RE [5, 11]: 102.40%
Stability in rat plasma, RE [5, 12]: 107.05%
Stability in rat plasma, RE [5, 13]: 103.56%
Stability in rat plasma, RE [5, 14]: 105.41%
Stability in rat plasma, RE [5, 15]: 106.18%
Stability in rat plasma, RE [5, 16]: 100.79%
Stability in rat plasma, RE [5, 17]: 98.95%
Stability in rat plasma, RE [5, 18]: 108.01%

Compound: CCOc1cc2ncc(C#N)c(Nc3ccc(O)c(Cl)c3)c2cc1NC(=O)/C=C/[C@@H]1CCCN1C [Pyrotinib M1, O-depicolyl pyrotinib]
Stability in rat plasma, RE [5, 10]: 103.58%
Stability in rat plasma, RE [5, 11]: 104.44%
Stability in rat plasma, RE [5, 12]: 108.67%
Stability in rat plasma, RE [5, 13]: 108.42%
Stability in rat plasma, RE [5, 14]: 102.22%
Stability in rat plasma, RE [5, 15]: 102.44%
Stability in rat plasma, RE [5, 16]: 104.47%
Stability in rat plasma, RE [5, 17]: 109.33%
Stability in rat plasma, RE [5, 18]: 107.56%

Compound: N#CC[C@H](C1CCCC1)n1cc(-c2ncnc3[nH]ccc23)cn1 [ruxolitinib]
increase of plasma exposure [6]: 91%

The next lines start with the values.

IC50 [1]: 11600 nM
Ki [1]: 15100 nM
αKi [1]: 19.01 µM
Compound: OC(Cn1cncn1)(Cn1cncn1)c1ccc(F)cc1F [fluconazole, Fluconazole]

inhibitory effect on pyrotinib in vivo ([3]; 40 mg/kg azole for 7 days, then 8 mg/kg pyrotinib oral): no inhibitory effect
IC50 [1]: 270 nM
Ki [1]: 496 nM
αKi [1]: 0.334 µM
Compound: CCC(C)n1ncn(-c2ccc(N3CCN(c4ccc(OCC5COC(Cn6cncn6)(c6ccc(Cl)cc6Cl)O5)cc4)CC3)cc2)c1=O (stereo not shown) [itraconazole, Itraconazole]
